Test results reported in US20100216779A1 (GLAXOSMITHKLINE LLC, priority 2007, published 2010).

System: Colo-205 tumors (colon carcinoma cell line)
Assay: In vivo efficacy, Colo-205 tumor bearing mice
Set-up: species or system mouse
Method: In addition to the LISN xenograft efficacy studies, Example 57 has also been assessed in vivo in two other mouse models of cancer, including: Colo-205 tumor bearing mice (colon carcinoma cell line) and BT474 tumor bearing mice (breast carcinoma cell line). Forty female nude mice bearing Colo-205 tumors (average tumor size of 200 mm3) were randomized into five groups of eight mice and dosed with either vehicle (20% SBE pH3.5) or Example 57 at 100, 30, 10 mg/kg QD or 30 mg/kg BID for 21 days. The groups of mice dosed with the higher doses of Example 57 (100 mg/kg QD and 30 mg/kg BID) lost greater than 20% body weight within 10 days of dosing so were taken off the study and allowed to recover. […] The higher doses of 100 mg/kg QDx10 and 30 mg/kg BIDx10 achieved 72 and 49% tumor growth inhibition respectively.

Q: With `COc1cc(N2CCC(N3CCN(CCF)CC3)CC2)ccc1Nc1nccc(-c2c(-c3cccc(C(=O)Nc4c(F)cccc4F)c3)nc3ccccn23)n1` [Example 57, N-(2,6-difluorophenyl)-3-[3-(2-{[4-{4-[4-(2-fluoroethyl)-1-piperazinyl]-1-piperidinyl}-2-(methyloxy)phenyl]amino}-4-pyrimidinyl)imidazo[1,2-a]pyridin-2-yl]benzamide] as the compound, how does the tumor growth inhibition (Colo-205, 10 mg/kg QDx21) read?
A: 17%

Q: And the tumor growth inhibition (Colo-205, 30 mg/kg BIDx10)?
A: 49%

Q: What about the tumor growth inhibition (Colo-205, 30 mg/kg QDx21) of the same compound?
A: 40%

Q: And the body weight lost (Colo-205, 100 mg/kg QD and 30 mg/kg BID, within 10 days of dosing)?
A: greater than 20%

Q: And the tumor growth inhibition (Colo-205, 100 mg/kg QDx10)?
A: 72%

Q: And the body weight loss (Colo-205, 30 and 10 mg/kg QDx21)?
A: no body weight loss
